Data as given in patent US20080242594A1, “Methods for Promoting Stem Cell Proliferation and Survival” (priority 2005, published 2008).

Assays:
[1] = tested on: murine E13.5 cortical stem cell cultures; experiment: Real-time imaging of lineage, death events and cell cycle; assay type: cell-based, mouse; conditions: from 4 hours after plating, compared to controls
Protocol: FIGS. 1a-1f are a set of images showing that Notch ligands stimulate survival in CNS stem cell (CNS SC) cultures. FIG. 1a is a bar graph […] the effect of Notch activation by Jagged-1, Delta-4, or combination in the presence of FGF2 for 5 days on plating efficiency, colony size, and BrdU incorporation (following a 4 hour BrdU pulse), over control treatments (FGF2 alone) FIG. 1b is a graph showing lineage and death events in murine E13.5 cortical stem cell cultures in the presence of FGF2 or FGF2 and Delta-4 (“D4”), D114 inhibits cell death in real-time cell lineage experiments (“x” marks time of death). CNS stem cells from embryonic day 13.5 mouse cerebral cortex were plated following one passage and visualized in real-time for 36 hours (images were taken every 2 min). Lineage and death events are represented. Cells were cultured in a closed gas chamber at 37° C. and images of selected fields were taken every two minutes. FIG. 1c is a line graph showing accumulative real-time imaging representation of death even times over 36 hours in culture with or without Delta-4. […] Cell cycle durations for the first two divisions are shown. FIG. 1e is a bar graph showing Delta-4 treatment of CNS SC cultures replaced the requirement for insulin in the medium in a plating efficiency assay. […] In the graphs, data represent Means ±standard deviation (SD). […]

[2] = tested on: mouse fetal central nervous system stem cell cultures; experiment: Survival of fetal CNS stem cell cultures with insulin and Dll4; assay type: cell-based
Protocol: As there was a tight correlation between the Notch survival pathway and Hes3, it was investigated as to whether Hes3 is a mediator of the Notch pro-survival signalling. It was determined that both insulin and Notch activation promote the survival of foetal and adult neural stem cell cultures and their effects are additive (Tables 8-9).

[3] = tested on: adult rat subventricular zone (SVZ); experiment: Dividing (BrdU+) cells in SVZ after single lateral ventricle injection; assay type: in vivo; conditions: BrdU for 3 days, sacrificed on the 5th day
Protocol: In vivo, Notch and insulin also increase the number of dividing cells in the adult rat subventricular zone (SVZ) 5 days after a single injection It was determined that Notch and insulin co-operate to promote new (BrdU+) cells in vivo. Specifically, the reagents infused in the lateral ventricle of adult rats as a single injection. The rats were then given BrdU for 3 days and sacrificed on the 5th day (Table 10).

p38 MAP kinase = p38 MAP kinase phosphorylation immunoblot in CNS stem cells; assay type: cell-based, mouse
Source text: A candidate was p38MAP kinase, known to act downstream of JAK in many cells including CNS stem cells. p38 kinase has been implicated both in differentiation and cell cycle regulation, and recently, inhibition of p38 kinase enabled the proliferation of adult mammalian […] (Engel et al., Genes Dev, 2005). Inhibition of JAK blocked CNTF induced phosphorylation of p38 (FIG. 2g).

H1 hES cells = experiment: hES colony number formation, H1; assay type: cell-based, human; conditions: H1 line
Source text: The human ES cell lines HSF-6 (University of California, San Francisco; NIH # UC06, Passage 38-120) and H1 and H9 (WiCell Research Institute, NIH # WA01 and […]) were maintained on mouse embryonic fibroblasts (MEF) according to the suppliers' protocols. Immunocytochemistry and FACS analysis for the expression of Oct4 and SSEA4 and SKY karyotyping established that the starting cells are undifferentiated and have a normal set of chromosomes. For single cell survival experiments, hES colonies were harvested after treatment with 1.5 mg/ml collagenase type IV (Invitrogen), separated from the MEF feeder cells by repeated washing by gravity, gently triturated to break up colonies into small aggregates, further dissociated into a single cell solution by trypsination (0.05% trypsin/0.04% EDTA) and transferred on MEF feeder cells at a density of 10000 cells/ml. Oct-4 positive colonies were counted six days after plating. […]
The pro-survival effects of activation of Notch and inhibition of JAK was tested on HSF-6 (NIH code UC06, http://escell.ucsf.edu), H1 (NIH code WA01, www.wicell.org) and H9 (NIH code WA09, www.wicell.org) hES cells. Singly dissociated hES cells were plated on mouse embryo fibroblasts (MEFs), treated daily for one week and colony numbers counted. […]

Compound | death events [1] | Cell # [2] | Cell # [3] | phosphorylation of p38 MAP kinase at Thr180/Tyr182 (p38 MAP kinase) | colony number formation (H1 hES cells)
Delta-4: soluble Notch ligand Delta-4 (1389-D4) from R&D | very few death events were observed | High | High |  | 
CC(C)(C)c1nc2c3ccc(F)cc3c3c(=O)[nH]ccc3c2[nH]1 [JAK Inhibitor, 2-(1,1-Dimethylethyl)-9-fluoro-3,6-dihydro-7H-benz[h]-imidaz[4,5-f]isoquinolin-7-one] |  |  |  | reduced the levels of phosphorylation | 448.5%±57.4
